Assay results published in patent USRE30241E, “Esters of 3-(hydroxy or hydroxymethyl)-4-hydroxyphenyl aminomethyl ketones” (Sterling Drug Inc., priority 1970, dated 1980).
Counter-ions that a name gives are not always drawn. Like-named read-outs stand apart in the source and are kept apart here.

Test system: carbachol- or histamine-induced bronchoconstriction
Assay: Bronchodilator Test Method I, anesthetized dog, intravenous activity
Format: in vivo
Conditions: Canis lupus familiaris, read-out: Bronchodilatation; for inhibition in vivo at 0.095 mg/kg: 95 mcg/kg i.v.; for inhibition in vivo at 0.19 mg/kg: 190 mcg/kg i.v.; for inhibition in vivo at 0.38 mg/kg: 380 mcg/kg i.v.; for inhibition in vivo at 0.014 mg/kg: 14 mcg/kg i.v.; for inhibition in vivo at 0.056 mg/kg: 56 mcg/kg i.v.; for inhibition in vivo at 0.294 mg/kg: 294 mcg/kg i.v.; for inhibition in vivo at 1.176 mg/kg: 1176 mcg/kg i.v.; for inhibition in vivo at 0.147 mg/kg: 147 mcg/kg i.v.; for inhibition in vivo at 0.152 mg/kg: 152 mcg/kg i.v.; for inhibition in vivo at 0.304 mg/kg: 304 mcg/kg i.v.; for inhibition in vivo at 0.075 mg/kg: 75 mcg/kg i.v.; for inhibition in vivo at […]: 150 mcg/kg i.v.; for inhibition in vivo at 0.3 mg/kg: 300 mcg/kg i.v.; for inhibition in vivo at 0.02 mg/kg: 20 mcg/kg i.v.; for inhibition in vivo at 0.1 mg/kg: 100 mcg/kg i.v.; for inhibition in vivo at 0.005 mg/kg: 5 mcg/kg i.v.
Experimental: Bronchodilator activity was tested in anesthetized dogs (Test Method I) and in vitro on the perfused guinea pig lung (Test Method II), using the following pharmacological test procedures
Male and female dogs weighing 9-18 kg. each were anesthetized with pentobarbital sodium (30 mg./kg. i.v.). Each animal, with thorax opened at the midsternum, was maintained under artificial ventilation using a constant volume pump (250 ml./stroke; 10 to 12 strokes per minute) attached to the tracheal cannula. The flow of air was controlled by a glass or plastic valve which closed and opened respectively on inflow and outflow of the air to and from the tracheal cannula. Bronchoconstriction and/or bronchodilatation were measured from changes in the basal airway pressure reflected by a transducer attached to the sidearm of the cannula relayed to a polygraph.
Control bronchoconstrictions were induced by intravenous injections of carbachol (choline chloride carbamate) in doses ranging from 4 to 6 micrograms per kilogram or histamine diphosphate in doses ranging from 35 to 45 micrograms per kilogram.
Solutions of the test compounds were prepared in distilled water or in saline (for infusion). […] These solutions were then tested for bronchodilator activity in three ways, viz. (1) by mixing a graded dose of test compound with the constant does of carbachol or histamine in a syringe and injecting the mixture into the femoral vein of the dog, (2) by producing the bronchoconstriction first and injecting the test compound at the time of maximum constriction, and (3) by injecting the test compound first followed by carbachol or histamine in 1-10 minutes. Injections were repeated at 20-30 minutes. Bronchodilator values were obtained by measuring the areas under the response polygraph tracings (the first 5 munite period) of carbachol or histamine controls and of the experimentals using a planimeter. Decrease in the area thus measured was expressed as a percent bronchodilatation in reference to the area of control carbachol or histamine constriction. The mean bronchodilatations (the reductions in constrictions) were plotted against the doses administered and the mean effective dose (ED50) was estimated in micrograms/kilogram from the does-response curves. Blood pressure recording was taken from the femoral artery using an arterial transducer relayed to a polygraph.

Question: What does the source list for `Cc1ccccc1C(=O)Oc1ccc(C(O)CNC(C)(C)C)cc1OC(=O)c1ccccc1C` (stereo not drawn) [Example 111, 3,4-bis(o-toluyloxy)-alpha-(tert-butylaminomethyl)benzyl alcohol methanesulfonate]?
Answer: inhibition in vivo at 0.0095 mg/kg (1 min, 9.5 mcg/kg i.v., 1-2 min): 0%; inhibition in vivo at 0.095 mg/kg (1 min, 1-2 min): 34%; inhibition in vivo at 0.19 mg/kg (1 min, 1-2 min): 27%; inhibition in vivo at 0.38 mg/kg (1 min, 1-2 min): 33%; inhibition in vivo at 0.095 mg/kg (0.5 h, 30 min): 36%; inhibition in vivo at 0.38 mg/kg (0.5 h, 30 min): 53%; inhibition in vivo at 0.19 mg/kg (1 h, 60 min): 18%; inhibition in vivo at 0.0475 mg/kg (2 h, 47.5 mcg/kg i.v., 120 min): 0%; inhibition in vivo at 0.095 mg/kg (2 h, 120 min): 32%; inhibition in vivo at 0.19 mg/kg (2 h, 120 min): 31%; inhibition in vivo at 0.38 mg/kg (2 h, 120 min): 55%; inhibition in vivo at 0.095 mg/kg (3 h, 180 min): 48%; inhibition in vivo at 0.19 mg/kg (3 h, 180 min): 35%; inhibition in vivo at 0.38 mg/kg (3 h, 180 min): 38%; inhibition in vivo at 0.095 mg/kg (4 h, 240 min): 41%; inhibition in vivo at 0.19 mg/kg (4 h, 240 min): 41%; inhibition in vivo at 0.095 mg/kg (5 h, 300 min): 50%; inhibition in vivo at 0.19 mg/kg (5 h, 300 min): 25%

Question: Which results are given for `COc1ccc(CC(=O)Oc2ccc(C(O)CNC(C)(C)C)cc2OC(=O)Cc2ccc(OC)cc2)cc1` (stereo not drawn) [Example 118, 3,4-bis(p-methoxyphenylacetoxy)-alpha-(tert-butylaminomethyl)benzyl alcohol hydrochloride]?
Answer: inhibition in vivo at 0.014 mg/kg (5 min, 5 min): 68%; inhibition in vivo at 0.056 mg/kg (5 min, 5 min): 100%; inhibition in vivo at 0.014 mg/kg (0.5 h, 30 min): 61%; inhibition in vivo at 0.056 mg/kg (0.5 h, 30 min): 60%; inhibition in vivo at 0.014 mg/kg (1 h, 60 min): 35%; inhibition in vivo at 0.056 mg/kg (1 h, 60 min): 45%; inhibition in vivo at 0.014 mg/kg (2 h, 120 min): 7%; inhibition in vivo at 0.056 mg/kg (2 h, 120 min): 12%

Question: `CNCC(O)c1ccc(OC(=O)c2ccc(C)cc2)c(OC(=O)c2ccc(C)cc2)c1` (stereo not drawn) [Example 126, 3,4-bis(p-toluyloxy)-alpha-(methylaminomethyl)benzyl alcohol methanesulfonate] was tested. Which inhibition in vivo at 0.294 mg/kg (1 min, 1-2 min) did it give?
Answer: Its inhibition in vivo at 0.294 mg/kg is 13%.

Question: And the inhibition in vivo at 1.176 mg/kg (1 min, 1-2 min)?
Answer: Its inhibition in vivo at 1.176 mg/kg is 100%.

Question: What about the inhibition in vivo at 0.147 mg/kg (0.5 h, 30 min) of the same compound?
Answer: The inhibition in vivo at 0.147 mg/kg was 27%.

Question: And the inhibition in vivo at 0.294 mg/kg (0.5 h, 30 min)?
Answer: The inhibition in vivo at 0.294 mg/kg was 8%.

Question: What about the inhibition in vivo at 1.176 mg/kg (0.5 h, 30 min) of the same compound?
Answer: The inhibition in vivo at 1.176 mg/kg was 47%.

Question: What about the inhibition in vivo at 0.147 mg/kg (1 h, 60 min) of the same compound?
Answer: The inhibition in vivo at 0.147 mg/kg was 15%.

Question: What about the inhibition in vivo at 0.294 mg/kg (1 h, 60 min) of the same compound?
Answer: The inhibition in vivo at 0.294 mg/kg was 17%.

Question: What about the inhibition in vivo at 1.176 mg/kg (1 h, 60 min) of the same compound?
Answer: The inhibition in vivo at 1.176 mg/kg was 20%.

Question: For `CCC(NC(C)C)C(O)c1ccc(OC(=O)c2ccc(C)cc2)c(OC(=O)c2ccc(C)cc2)c1` (stereo not drawn) [Example 132, 3,4-bis(p-toluyloxy)-alpha-[1-(isopropylamino)propyl]benzyl alcohol hydrochloride], which inhibition in vivo at 0.152 mg/kg (5 min, 5 min) is on record?
Answer: Its inhibition in vivo at 0.152 mg/kg is 67%.

Question: And the inhibition in vivo at 0.304 mg/kg (5 min, 5 min)?
Answer: Its inhibition in vivo at 0.304 mg/kg is 100%.

Question: What about the inhibition in vivo at 0.152 mg/kg (0.5 h, 30 min) of the same compound?
Answer: Its inhibition in vivo at 0.152 mg/kg is 75%.

Question: What about the inhibition in vivo at 0.304 mg/kg (0.5 h, 30 min) of the same compound?
Answer: Its inhibition in vivo at 0.304 mg/kg is 67%.

Question: What about the inhibition in vivo at 0.152 mg/kg (1 h, 60 min) of the same compound?
Answer: Its inhibition in vivo at 0.152 mg/kg is 71%.

Question: What about the inhibition in vivo at 0.152 mg/kg (2 h, 120 min) of the same compound?
Answer: Its inhibition in vivo at 0.152 mg/kg is 52%.

Question: What about the inhibition in vivo at 0.152 mg/kg (3 h, 180 min) of the same compound?
Answer: The inhibition in vivo at 0.152 mg/kg was 43%.

Question: What about the inhibition in vivo at 0.152 mg/kg (4 h, 240 min) of the same compound?
Answer: Its inhibition in vivo at 0.152 mg/kg is 0%.

Question: What about the inhibition in vivo at 0.152 mg/kg (5 h, 300 min) of the same compound?
Answer: The inhibition in vivo at 0.152 mg/kg was 0%.

Question: What about the inhibition in vivo at 0.304 mg/kg (5 h, 300 min) of the same compound?
Answer: The inhibition in vivo at 0.304 mg/kg was 0%.

Question: `CC(=O)OC(CNC(C)(C)C)c1ccc(OC(=O)c2ccc(C)cc2)c(OC(=O)c2ccc(C)cc2)c1` (stereo not drawn) [Example 134, 3,4-bis(p-toluyloxy)-alpha-(tert-butylaminomethyl)benzyl acetate] was tested. Which inhibition in vivo at 0.075 mg/kg (5 min, 5 min) did it give?
Answer: Its inhibition in vivo at 0.075 mg/kg is 25%.

Question: What about the inhibition in vivo at […] (5 min, 5 min) of the same compound?
Answer: The inhibition in vivo at […] was 54%.

Question: What about the inhibition in vivo at 0.3 mg/kg (5 min, 5 min) of the same compound?
Answer: The inhibition in vivo at 0.3 mg/kg was 47%.

Question: What about the inhibition in vivo at 0.075 mg/kg (0.5 h, 30 min) of the same compound?
Answer: The inhibition in vivo at 0.075 mg/kg was 21%.

Question: What about the inhibition in vivo at […] (0.5 h, 30 min) of the same compound?
Answer: The inhibition in vivo at […] was 58%.

Question: And the inhibition in vivo at 0.075 mg/kg (1 h, 60 min)?
Answer: The inhibition in vivo at 0.075 mg/kg was 5%.

Question: And the inhibition in vivo at […] (1 h, 60 min)?
Answer: The inhibition in vivo at […] was 52%.

Question: What about the inhibition in vivo at 0.075 mg/kg (2 h, 120 min) of the same compound?
Answer: Its inhibition in vivo at 0.075 mg/kg is 0%.

Question: What about the inhibition in vivo at […] (2 h, 120 min) of the same compound?
Answer: Its inhibition in vivo at […] is 35%.

Question: And the inhibition in vivo at 0.075 mg/kg (3 h, 180 min)?
Answer: The inhibition in vivo at 0.075 mg/kg was 0%.

Question: And the inhibition in vivo at […] (3 h, 180 min)?
Answer: Its inhibition in vivo at […] is 20%.

Question: And the inhibition in vivo at […] (4 h, 240 min)?
Answer: Its inhibition in vivo at […] is 0%.

Question: What about the inhibition in vivo at 0.3 mg/kg (4 h, 240 min) of the same compound?
Answer: The inhibition in vivo at 0.3 mg/kg was 36%.

Question: `CC(C)CC(=O)OCc1cc(C(O)CNC(C)(C)C)ccc1OC(=O)CC(C)C` (stereo not drawn) [Example 136, 3-(isovaleryloxymethyl)-4-(isovaleryloxy)-alpha-(tert-butylaminomethyl)benzyl alcohol methanesulfonate] was tested. Which inhibition in vivo at 0.02 mg/kg (5 min, 5 min) did it give?
Answer: The inhibition in vivo at 0.02 mg/kg was 36%.

Question: And the inhibition in vivo at 0.1 mg/kg (5 min, 5 min)?
Answer: Its inhibition in vivo at 0.1 mg/kg is 82%.

Question: And the inhibition in vivo at 0.02 mg/kg (0.5 h, 30 min)?
Answer: The inhibition in vivo at 0.02 mg/kg was 53%.

Question: What about the inhibition in vivo at 0.1 mg/kg (0.5 h, 30 min) of the same compound?
Answer: Its inhibition in vivo at 0.1 mg/kg is 80%.

Question: What about the inhibition in vivo at 0.005 mg/kg (1 h, 60 min) of the same compound?
Answer: Its inhibition in vivo at 0.005 mg/kg is 47%.

Question: What about the inhibition in vivo at 0.02 mg/kg (1 h, 60 min) of the same compound?
Answer: Its inhibition in vivo at 0.02 mg/kg is 57%.

Question: And the inhibition in vivo at 0.1 mg/kg (1 h, 60 min)?
Answer: Its inhibition in vivo at 0.1 mg/kg is 70%.

Question: And the inhibition in vivo at 0.02 mg/kg (2 h, 120 min)?
Answer: Its inhibition in vivo at 0.02 mg/kg is 40%.

Question: And the inhibition in vivo at 0.1 mg/kg (2 h, 120 min)?
Answer: Its inhibition in vivo at 0.1 mg/kg is 60%.

Question: What about the inhibition in vivo at 0.005 mg/kg (3 h, 180 min) of the same compound?
Answer: Its inhibition in vivo at 0.005 mg/kg is 53%.

Question: And the inhibition in vivo at 0.02 mg/kg (3 h, 180 min)?
Answer: The inhibition in vivo at 0.02 mg/kg was 12%.

Question: What about the inhibition in vivo at 0.1 mg/kg (3 h, 180 min) of the same compound?
Answer: The inhibition in vivo at 0.1 mg/kg was 42%.

Question: And the inhibition in vivo at 0.005 mg/kg (4 h, 240 min)?
Answer: Its inhibition in vivo at 0.005 mg/kg is 46%.

Question: What about the inhibition in vivo at 0.02 mg/kg (4 h, 240 min) of the same compound?
Answer: Its inhibition in vivo at 0.02 mg/kg is 7%.

Question: What about the inhibition in vivo at 0.005 mg/kg (5 h, 300 min) of the same compound?
Answer: The inhibition in vivo at 0.005 mg/kg was 46%.

Question: What about the inhibition in vivo at 0.02 mg/kg (5 h, 300 min) of the same compound?
Answer: Its inhibition in vivo at 0.02 mg/kg is 12%.

Question: And the inhibition in vivo at 0.1 mg/kg (5 h, 300 min)?
Answer: Its inhibition in vivo at 0.1 mg/kg is 32%.
